Converted amounts (≈) assume the structure as drawn. Where a name gives a salt, the structure may show the parent alone. Read-outs that look alike come from different tables or passages of the source.
Experiments:
Staph. aureus = assay: Agar dilution MIC; type: cell-based; conditions: Staphylococcus aureus
Salmonella = assay: Agar dilution MIC; type: cell-based
Source text: (§1) A typical and preferred compound provided by this invention is 7-(3-indolylglycylamido)-3-methyl-3-cephem-4-carboxylic acid, the compound illustrated in Example 2. The antibacterial activity of this compound and others of the invention has been determined in standard in vitro agar dilution assays against a variety of gram positive and gram negative microorganisms. The following Table presents typical minimum inhibitory concentrations (MIC's) in μg/ml for several compounds of the invention when evaluated against the indicated microorganisms. MIC's for several known compounds are also presented for comparison.

Klebsiella = assay: Agar dilution MIC; type: cell-based
Enterobacter = assay: Agar dilution MIC; type: cell-based; conditions: for MIC: Enterobacter
Staph. epi = assay: Agar dilution MIC; type: cell-based; conditions: for Agar Dilution MIC: strain EPI2
Source text: as §1

Strep. A = assay: Agar dilution MIC; type: cell-based; conditions: strain C203
Strep PN = assay: Agar dilution MIC; type: cell-based; conditions: strain PARK
Strep. D = assay: Agar dilution MIC; type: cell-based; conditions: read-out: Agar Dilution MIC
E. coli = assay: Agar dilution MIC; type: cell-based; conditions: Escherichia coli
Shig. sonn. = assay: Agar dilution MIC; type: cell-based; conditions: strain N9
[1] = Pharmacokinetics, plasma concentration after intravenous dose; type: in vivo; conditions: rat, rats, 20 mg/kg
Description: (§2) For example, when 7-(3-indolylglycylamido)-3-methyl-3-cephem-4-carboxylic acid was administered to rats at an intravenous dose of 20 mg/kg, the plasma concentration after one hour was 15.0 μg/ml, and after four hours, 6.0 μg/ml. About 60% of the above compound was recovered in the urine of rats following a 20 mg/kg subcutaneous dose. Less than 5% was recovered from the bile.

[2] = Recovery in urine and bile after subcutaneous dose; type: in vivo; conditions: rat, sc, rats, 20 mg/kg
Description: as §2

[3] = strain X1.1, read-out: Agar Dilution MIC
[4] = read-out: Agar Dilution MIC, strain X514
[5] = strain 1335, read-out: Agar Dilution MIC
[6] = strain X68, read-out: Agar Dilution MIC
[7] = strain V41, read-out: Agar Dilution MIC
[8] = read-out: Agar Dilution MIC, strain S13E
[9] = strain X400, read-out: Agar Dilution MIC
[10] = strain EPI1, read-out: Agar Dilution MIC
[11] = strain X26, read-out: Agar Dilution MIC

Row | Structure (SMILES) | MIC (Staph. aureus; [3]) | MIC (Salmonella; [4]) | MIC (Salmonella; [5]) | MIC (Enterobacter; [6]) | MIC (Staph. aureus; read-out: Agar Dilution MIC) | MIC (Staph. aureus; [7]) | MIC (Staph. aureus; [8]) | MIC (Staph. aureus; [9]) | MIC (Staph. epi; [10]) | Agar Dilution MIC (Staph. epi) | MIC (Strep. A) | MIC (Strep PN) | MIC (Strep. D; strain 9960) | MIC (Strep. D; strain X66) | MIC (E. coli; strain EC14) | MIC (E. coli; strain N10) | MIC (E. coli; strain TEM) | MIC (Klebsiella; [11]) | MIC (Klebsiella; [6]) | Agar Dilution MIC (Enterobacter; strain EB17) | also measured
1 | CC1=C(C(=O)O)N2C(=O)[C@@H](NC(=O)[C@H](N)c3ccccc3)[C@H]2SC1 [Cephalexin, reference compound] | 2 µg/mL (≈ 5.76 µM) | 0.6 µg/mL (≈ 1.73 µM) | 0.25 µg/mL (≈ 0.72 µM) | 0.03 µg/mL (≈ 0.0864 µM) | – | – | – | – | – | – | – | – | – | – | – | – | – | – | – | – | MIC (Klebsiella; read-out: Agar Dilution MIC): 2 µg/mL (≈ 5.76 µM); MIC (Enterobacter; read-out: Agar Dilution MIC, strain C32): 0.125 µg/mL (≈ 0.36 µM); MIC (Enterobacter; read-out: Agar Dilution MIC, strain EB17): 0.06 µg/mL (≈ 0.173 µM)
2 | CC1(C)S[C@@H]2[C@H](NC(=O)[C@H](N)c3ccccc3)C(=O)N2[C@H]1C(=O)O [Ampicillin, reference compound] | – | 1 µg/mL (≈ 2.86 µM) | 4 µg/mL (≈ 11.4 µM) | 8 µg/mL (≈ 22.9 µM) | 0.125 µg/mL (≈ 0.358 µM) | 8 µg/mL (≈ 22.9 µM) | – | – | – | – | – | – | – | – | – | – | – | – | – | – | –
3 | COC1=C(C(=O)O)N2C(=O)[C@@H](NC(=O)[C@H](N)c3c[nH]c4ccccc34)C2SC1 (stereo partly drawn) [Ex. 4, D-7-(3-Indolylglycylamido)-3-methoxy-3-cephem-4-carboxylic acid] | 4 µg/mL (≈ 9.94 µM) | 16 µg/mL (≈ 39.8 µM) | 32 µg/mL (≈ 79.5 µM) | > 128 µg/mL | 32 µg/mL (≈ 79.5 µM) | – | 8 µg/mL (≈ 19.9 µM) | 64 µg/mL (≈ 159 µM) | 16 µg/mL (≈ 39.8 µM) | 16 µg/mL | 0.25 µg/mL (≈ 0.621 µM) | 0.5 µg/mL (≈ 1.24 µM) | 16 µg/mL (≈ 39.8 µM) | 64 µg/mL (≈ 159 µM) | 8 µg/mL (≈ 19.9 µM) | 16 µg/mL (≈ 39.8 µM) | 32 µg/mL (≈ 79.5 µM) | 16 µg/mL (≈ 39.8 µM) | 16 µg/mL (≈ 39.8 µM) | > 128 µg/mL | MIC (Shig. sonn.): 32 µg/mL (≈ 79.5 µM); Agar Dilution MIC (Enterobacter; strain C32): > 128 µg/mL
4 | N[C@@H](C(=O)N[C@@H]1C(=O)N2C(C(=O)O)=C(Cl)CSC12)c1c[nH]c2ccccc12 (stereo partly drawn) [Ex. 3, D-7-(3-indolylglycylamido)-3-chloro-3-cephem-4-carboxylic acid trifluoroacetate] | 4 µg/mL | 16 µg/mL | 16 µg/mL | > 128 µg/mL | 32 µg/mL | – | 8 µg/mL | 64 µg/mL | 16 µg/mL | – | 0.5 µg/mL | 0.25 µg/mL | 16 µg/mL | 16 µg/mL | 8 µg/mL | 16 µg/mL | 16 µg/mL | 4 µg/mL | 16 µg/mL | > 128 µg/mL | MIC (Staph. epi; read-out: Agar Dilution MIC, strain EPI2): 32 µg/mL; Agar Dilution MIC (Enterobacter; strain C32): > 128 µg/mL
5 | CC1=C(C(=O)O)N2C(=O)[C@@H](NC(=O)[C@H](N)c3c[nH]c4ccccc34)C2SC1 (stereo partly drawn) [Ex. 2, D-7-(3-Indolylglycylamido)-3-methyl-3-cephem-4-carboxylic acid trifluoroacetate] | 4 µg/mL | 32 µg/mL | 128 µg/mL | – | – | 8 µg/mL | 32 µg/mL | 64 µg/mL | 16 µg/mL | 16 µg/mL | 0.25 µg/mL | 0.5 µg/mL | 16 µg/mL | – | 32 µg/mL | 32 µg/mL | 16 µg/mL | 16 µg/mL | – | > 128 µg/mL | MIC (Strep. D): 32 µg/mL; MIC (Enterobacter; read-out: Agar Dilution MIC, strain X68): 32 µg/mL; MIC (Enterobacter; strain C32, read-out: Agar Dilution MIC): > 128 µg/mL; concentration at 4 h ([1]; four hours): 6000 ng/mL; concentration at 1 h ([1]; one hour): 15000 ng/mL; dose excreted ([2]; bile, read-out: recovered from the bile): < 5%; dose excreted ([2]; urine, read-out: recovered in the urine): ~60%
